# Patent US6967196B1, “Sulfonamide compounds and uses thereof” (Bristol-Myers Squibb Company, priority 1999, dated 2005)
# pIC50: −log10 of the molar value. Where two headings read alike, the source gives them in different places.
# Test system: amyloid β production in transfected H4 (human neuroglioma) cells stably expressing APP constructs
# Test: In vitro cell-based assay of inhibitors of amyloid β production (ELISA)
# Settings: amyloid β in medium by ELISA, read-out: ACTIVITY (IC50, inhibition of amyloid β production)
# Procedure, shortened: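 Test agents are screened at 10-100 μM for about 16 hours on cells stably expressing wild-type or variant APP. Secreted Aβ is measured by ELISA and compared with control-treated cells.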
# [1] = Homo sapiens, 16 h, transfected H4 cells expressing APP, approximately 16 hours incubation
# [2] = transfected H4 cells expressing APP, approximately 16 hours incubation
# [3] = transfected H4 cells stably expressing APP constructs, approximately 16 hours incubation
# [4] = transfected H4 cells stably expressing APP, approx. 16 h incubation
# [5] = transfected H4 cells stably expressing APP, approximately 16 hours incubation
# [6] = transfected H4 cells stably expressing APP, approximately 16 hours incubation, Table B
Molecule,pIC50 [1],further results
C[C@H](C(=O)N[C@H]1CC[C@H](O)CC1)N(c1cc(Cl)ccc1F)S(=O)(=O)c1ccc(Cl)cc1 [Example 1338],6.30 to 7.00,–
C[C@H](C(=O)NCCc1ccccn1)N(c1cc(Cl)ccc1F)S(=O)(=O)c1ccc(Cl)cc1 [Example 1339],6.30 to 7.00,–
CC1CCCCN1CCCNC(=O)[C@@H](C)N(c1cc(Cl)ccc1F)S(=O)(=O)c1ccc(Cl)cc1 (some centres unmarked) [Example 1340],< 6.30,–
C[C@H](C(=O)NCc1ccccn1)N(c1cc(Cl)ccc1F)S(=O)(=O)c1ccc(Cl)cc1 [Example 1341],6.30 to 7.00,–
CC1CCC(NC(=O)[C@@H](C)N(c2cc(Cl)ccc2F)S(=O)(=O)c2ccc(Cl)cc2)CC1 (some centres unmarked) [Example 1342],6.30 to 7.00,–
C[C@H](C(=O)N[C@@H](CO)CSCc1ccccc1)N(c1cc(Cl)ccc1F)S(=O)(=O)c1ccc(Cl)cc1 [Example 1343],< 6.30,–
C[C@H](C(=O)NC(C)(C)CO)N(c1cc(Cl)ccc1F)S(=O)(=O)c1ccc(Cl)cc1 [Example 1344],6.30 to 7.00,–
C[C@H](C(=O)NC1CCCCCCC1)N(c1cc(Cl)ccc1F)S(=O)(=O)c1ccc(Cl)cc1 [Example 1345],6.30 to 7.00,–
COCCCNC(=O)[C@@H](C)N(c1cc(Cl)ccc1F)S(=O)(=O)c1ccc(Cl)cc1 [Example 1346],6.30 to 7.00,–
CC1CCCC(NC(=O)[C@@H](C)N(c2cc(Cl)ccc2F)S(=O)(=O)c2ccc(Cl)cc2)C1 (some centres unmarked) [Example 1347],6.30 to 7.00,–
CCC(C)(C)c1ccc(OCCCCNC(=O)[C@@H](C)N(c2cc(Cl)ccc2F)S(=O)(=O)c2ccc(Cl)cc2)c(C(C)(C)CC)c1 [Example 1348],< 6.30,–
CC(C)C(CO)NC(=O)[C@@H](C)N(c1cc(Cl)ccc1F)S(=O)(=O)c1ccc(Cl)cc1 (some centres unmarked) [Example 1349],6.30 to 7.00,–
C[C@H](C(=O)NCCCCCCO)N(c1cc(Cl)ccc1F)S(=O)(=O)c1ccc(Cl)cc1 [Example 1350],6.30 to 7.00,–
C[C@H](C(=O)N[C@H](C)C1CCCCC1)N(c1cc(Cl)ccc1F)S(=O)(=O)c1ccc(Cl)cc1 [Example 1351],< 6.30,–
C[C@H](C(=O)NCCN1CCCCC1)N(c1cc(Cl)ccc1F)S(=O)(=O)c1ccc(Cl)cc1 [Example 1352],< 6.30,–
COc1ccc(CCNC(=O)[C@@H](C)N(c2cc(Cl)ccc2F)S(=O)(=O)c2ccc(Cl)cc2)cc1 [Example 1353],< 6.30,–
C[C@H](C(=O)N(CCN)c1ccc([N+](=O)[O-])cn1)N(c1cc(Cl)ccc1F)S(=O)(=O)c1ccc(Cl)cc1 [Example 1354],< 6.30,–
C[C@H](C(=O)N[C@H](CO)Cc1ccccc1)N(c1cc(Cl)ccc1F)S(=O)(=O)c1ccc(Cl)cc1 [Example 1355],< 6.30,–
C[C@H](C(=O)NCc1cc(F)ccc1F)N(c1cc(Cl)ccc1F)S(=O)(=O)c1ccc(Cl)cc1 [Example 1356],–,pIC50 [2]: < 6.30
C[C@H](C(=O)NCc1cccs1)N(c1cc(Cl)ccc1F)S(=O)(=O)c1ccc(Cl)cc1 [Example 1357],6.30 to 7.00,–
CC(C(=O)N[C@@H]1C[C@H]2CC[C@@H]1CC2)N(c1cc(Cl)ccc1F)S(=O)(=O)c1ccc(Cl)cc1 (some centres unmarked) [Example 1358],6.30 to 7.00,–
C[C@H](C(=O)NCCc1ccccc1F)N(c1cc(Cl)ccc1F)S(=O)(=O)c1ccc(Cl)cc1 [Example 1359],< 6.30,–
C[C@H](C(=O)NCCCCO)N(c1cc(Cl)ccc1F)S(=O)(=O)c1ccc(Cl)cc1 [Example 1360],6.30 to 7.00,–
COc1ccc(CNC(=O)[C@@H](C)N(c2cc(Cl)ccc2F)S(=O)(=O)c2ccc(Cl)cc2)cc1 [Example 1361],< 6.30,–
COc1cc(CNC(=O)[C@@H](C)N(c2cc(Cl)ccc2F)S(=O)(=O)c2ccc(Cl)cc2)cc(OC)c1OC [Example 1362],< 6.30,–
C[C@@H](C(=O)NCc1ccccc1Sc1ccccc1CO)N(c1cc(Cl)ccc1F)S(=O)(=O)c1ccc(Cl)cc1 [Example 1363],< 6.30,–
COc1cccc(OC)c1CNC(=O)[C@@H](C)N(c1cc(Cl)ccc1F)S(=O)(=O)c1ccc(Cl)cc1 [Example 1364],–,pIC50 [2]: < 6.30

Molecule,pIC50 [1],further results
C[C@H](C(=O)NCc1cc(Cl)cc(Cl)c1)N(c1cc(Cl)ccc1F)S(=O)(=O)c1ccc(Cl)cc1 [Example 1365],< 6.30,–
C[C@H](C(=O)NCc1ccc(C2=CSNN2)cc1)N(c1cc(Cl)ccc1F)S(=O)(=O)c1ccc(Cl)cc1 [Example 1366],< 6.30,–
(2E)-1-N-(benzyloxy)-3-[2-({[(4-chlorophenyl)sulfonyl]anilino}methyl)phenyl]-2-propenamide hydrochloride [Example 1093],–,pIC50 [3]: < 5.00
"(2E)-1-N-{3-[2-({[(4-chlorophenyl)sulfonyl]-2,5-difluoroanilino}methyl)phenoxy]propyl}-N-methyl-2-butenamide [Example 783]",–,pIC50 [4]: 6.30 to 7.00
(2E)-3-[2-({[(4-chlorophenyl)sulfonyl]anilino}methyl)phenyl]-2-propenoic acid [Example 1035],–,pIC50 [5]: < 6.30
(2E)-3-[2-({[(4-chlorophenyl)sulfonyl]anilino}methyl)phenyl]-N-methoxy-N-methyl-2-propenamide [Example 1034],–,pIC50 [5]: < 6.30
"(2E)-N-{2-[2-(1-{[(4-chlorophenyl)sulfonyl]-2,5-difluoroanilino}ethyl)phenoxy]ethyl}-N-ethyl-2-butenamide [Example 649]",–,pIC50 [4]: 6.30 to 7.00
"(2E)-N-{4-[2-(1-{[(4-chlorophenyl)sulfonyl]-2,5-difluoroanilino}ethyl)phenoxy]butyl}-N-ethyl-2-butenamide [Example 514]",–,pIC50 [6]: 6.30 to 7.00
"(2E)-N-{4-[2-(1-{[(4-chlorophenyl)sulfonyl]-2,5-difluoroanilino}ethyl)phenoxy]butyl}-N-methyl-2-butenamide [Example 495]",–,pIC50 [6]: 6.30 to 7.00
"(2R)-2-{[(4-chlorophenyl)sulfonyl]-2,5-difluoroanilino}propanoic acid [Example 1013]",–,pIC50 [5]: < 6.30
"(2R)-2-{[(4-chlorophenyl)sulfonyl]-2,5-difluoroanilino}propyl isonicotinate [Example 1057]",–,pIC50 [5]: < 6.30
"(2R)-2-{[(4-chlorophenyl)sulfonyl]-2,5-difluoroanilino}propyl nicotinate [Example 1058]",–,pIC50 [5]: < 6.30
"(2R, 3R)-2,4-bis[(4-methylbenzoyl)oxy]butanedioic acid compound with 4-chloro-N-(2,5-difluorophenyl)-N-((1R)-1-{2-[3-(1H-imidazol-1- [Example 1049]",–,pIC50 [5]: < 6.30
"(2S)-2-[[2-((1R)-1-{[(4-chlorophenyl)sulfonyl]-2,5-difluoroanilino}ethyl)benzyl](methyl)amino]propanoic acid hydrochloride [Example 659]",–,pIC50 [4]: 6.30 to 7.00
"(2Z)-N-{3-[2-(1-{[(4-chlorophenyl)sulfonyl]-2,5-difluoroanilino}ethyl)phenoxy]propyl}-3-phenyl-2-propenamide [Example 732]",–,pIC50 [4]: 6.30 to 7.00
"(2Z)-N-{3-[2-(1-{[(4-chlorophenyl)sulfonyl]-2,5-difluoroanilino}ethyl)phenoxy]propyl}-N-methyl-3-phenyl-2-propenamide [Example 738]",–,pIC50 [4]: 6.30 to 7.00
"(E)-N-(2,5-dichlorophenyl)-2-phenyl-N-{2-[3-(1-piperidinyl)propoxy]benzyl}ethanesulfonamide hydrochloride [Example 994]",–,pIC50 [5]: < 6.30
"(R)-4-Chloro-N-(2,5-difluorophenyl)-N-[1-[4-fluoro-2-[1-(1,1-dioxo-2-methyl-4-thiomorpholinyl)butanoyl]phenyl]ethyl]benzenesulfonamide [Example 1277]",–,pIC50 [3]: ≥ 7.60
"(R)-4-Chloro-N-(2,5-difluorophenyl)-N-[1-[4-fluoro-2-[1-(2-methyl-4-thiomorpholinyl)butanoyl]phenyl]ethyl]benzenesulfonamide [Example 1276]",–,pIC50 [3]: ≥ 7.60
N-hydroxy-3-(2-{[(phenylsulfonyl)anilino]methyl}phenyl)propanamide [Example 1042],–,pIC50 [5]: < 6.30
"N-{2-[2-(1-{[(4-chlorophenyl)sulfonyl]-2,5-difluoroanilino}ethyl)phenoxy]ethyl}-2-cyclohexyl-N-methylacetamide [Example 844]",–,pIC50 [5]: 6.30 to 7.00
"N-{2-[2-(1-{[(4-chlorophenyl)sulfonyl]-2,5-difluoroanilino}ethyl)phenoxy]ethyl}-2-ethyl-N-methylhexanamide [Example 793]",–,pIC50 [4]: 6.30 to 7.00
"N-{2-[2-(1-{[(4-chlorophenyl)sulfonyl]-2,5-difluoroanilino}ethyl)phenoxy]ethyl}-3-cyclopentyl-N-ethylpropanamide [Example 857]",–,pIC50 [5]: 6.30 to 7.00
"N-{2-[2-(1-{[(4-chlorophenyl)sulfonyl]-2,5-difluoroanilino}ethyl)phenoxy]ethyl}-3-cyclopentyl-N-methylpropanamide [Example 653]",–,pIC50 [4]: 6.30 to 7.00
"N-{2-[2-(1-{[(4-chlorophenyl)sulfonyl]-2,5-difluoroanilino}ethyl)phenoxy]ethyl}-N,2-diethylhexanamide [Example 831]",–,pIC50 [5]: 6.30 to 7.00
"N-{2-[2-(1-{[(4-chlorophenyl)sulfonyl]-2,5-difluoroanilino}ethyl)phenoxy]ethyl}-N-ethyl-1-adamantanecarboxamide [Example 769]",–,pIC50 [4]: 6.30 to 7.00
